Data: patent US20240182453A1, “NOVEL SUBSTITUTED PYRAZINE-CARBOXAMIDE DERIVATIVES” (Boehringer Ingelheim International GmbH, priority 2022, published 2024)

Target: human metabotropic Glutamate 4 receptor (mGluR4) (Homo sapiens (Human), UniProt Q14833)
Experiment: Assay A: in vitro testing of mGluR4 potency (glutamate-induced cAMP lowering, HTRF cAMP)
Assay type: cell-based
Settings: HEK293 cells overexpressing human mGluR4; 10 uM L-glutamic acid, 1 uM forskolin; compounds of the present invention
Experimental: A. In Vitro Testing of mGluR4 Potency
The in vitro activity of the compounds according to the invention may be investigated as follows:
The HEK293 cell overexpressing the human metabotropic Glutamate 4 receptor are thawed at 37° C. and immediately diluted with cell culture medium. After centrifugation, the cell pellet is re-suspended in medium and then distributed from a stirred spinner flask into the wells of the assay plate. The plates are incubated for one hour at room temperature before they are incubated for 24 hours at 37° C./5% CO2. After washing the cells in the plate three times with 80 uL HBSS/HEPES buffer (10 uL buffer remained in the wells after washing), 5 uL per well of compounds diluted in HBSS/HEPES buffer containing 0.2% BSA (final concentration: 0.1%) and 1 mM IBMX (final concentration: 0.5 mM) are added to the wells of the assay plate. Thereafter 5 uL per well of L-Glutamic acid (final concentration: 10 uM), forskolin (final concentration: 1 uM) and 1 mM IBMX (final concentration: 0.5 mM) dissolved in HBSS/HEPES buffer containing 0.2% BSA (final concentration: 0.1%) are added to the assay plate (final DMSO concentration: 1%). Several wells of the assay plate are used either for the positive and the negative controls or for the cAMP standard curve. The assay plate is incubated for 30 minutes at room temperature. Then 5 ul per well of Anti-cAMP-Antibody-d2 solution and 5 ul per well of cAMP-Europium Cryptate dilution are added to all wells of the plate and the plate is incubated another 60 minutes light protected at room temperature. The emission at 615 nm and 665 nm (Excitation wavelength: 320 nm) are measured on the EnVision™ reader (Perkin Elmer). The ratio between the emission at 665 nm and 615 is calculated by the reader. The whole assay is performed in the dark or under green light.
The cAMP standard is prepared by diluting the cAMP stock solution with HBSS/Hepes buffer: 5 μl/well of the cAMP dilutions (in HBSS/Hepes buffer containing 1 mM IBMX and 0.2% BSA—final concentration: 0.5 mM IBMX and 0.1% BSA) are added to 10 ul/well HBSS/Hepes buffer plus 5 ul/well 4% DMSO in HBSS/Hepes containing 0.2% BSA (final DMSO concentration: 1%—like in the wells containing compounds) in the wells of the assay plate. The final cAMP concentrations in the assay plate are: 0, 0.17, 0.69, 2.78, 11.1, 44.5, 178, and 712 nM (two wells/cAMP concentration).
Each assay microtiter plate contained also wells with vehicle controls instead of compound as controls for L-Glutamic acid induced signal (negative control; 100% CTL; 10 uM L-Glutamic acid+1 uM forskolin+0.5 mM IBMX+1% DMSO) and wells with vehicle controls without L-Glutamic acid as controls for non-specific changes in signal (positive control; 0% CTL; 0 uM L-Glutamic acid+1 uM forskolin+0.5 mM IBMX+1% DMSO).
The analysis of the data is performed by the calculation the ratio between the emission at 665 nm and the emission at 615 nm (Em665/Em615 ratio). Thereafter the signals of the compounds are normalized using the positive and negative controls by the following formula:
PoC=100×((Signal Sample−Positive Control)/(Negative Control−Positive Control))

human metabotropic Glutamate 4 receptor (mGluR4), sequence (Q14833 33-912): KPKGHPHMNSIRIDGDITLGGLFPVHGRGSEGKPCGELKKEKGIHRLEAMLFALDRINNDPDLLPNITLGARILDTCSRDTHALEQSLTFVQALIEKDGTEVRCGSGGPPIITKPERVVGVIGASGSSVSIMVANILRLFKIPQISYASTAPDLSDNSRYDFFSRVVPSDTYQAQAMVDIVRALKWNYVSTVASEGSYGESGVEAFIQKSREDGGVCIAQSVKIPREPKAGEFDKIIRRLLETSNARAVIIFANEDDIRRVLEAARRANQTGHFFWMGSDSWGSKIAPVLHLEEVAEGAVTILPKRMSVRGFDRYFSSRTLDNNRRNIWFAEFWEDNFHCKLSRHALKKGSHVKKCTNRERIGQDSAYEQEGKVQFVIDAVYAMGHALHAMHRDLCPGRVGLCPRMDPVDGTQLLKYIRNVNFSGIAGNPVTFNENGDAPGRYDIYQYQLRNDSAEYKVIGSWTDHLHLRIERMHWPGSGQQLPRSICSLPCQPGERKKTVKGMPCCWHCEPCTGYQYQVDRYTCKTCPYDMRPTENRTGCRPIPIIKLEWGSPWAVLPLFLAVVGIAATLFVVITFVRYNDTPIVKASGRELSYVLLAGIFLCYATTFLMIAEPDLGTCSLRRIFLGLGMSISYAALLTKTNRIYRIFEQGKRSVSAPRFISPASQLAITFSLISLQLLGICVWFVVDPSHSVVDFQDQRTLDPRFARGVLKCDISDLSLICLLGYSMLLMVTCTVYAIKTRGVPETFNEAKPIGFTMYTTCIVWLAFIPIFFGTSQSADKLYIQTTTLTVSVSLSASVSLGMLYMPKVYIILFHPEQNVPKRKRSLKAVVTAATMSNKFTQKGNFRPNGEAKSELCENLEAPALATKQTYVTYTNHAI

Row | IC50 [nM] | SMILES
1 | 30 | CCn1c(C(NC(=O)c2cnc(C)cn2)C2CCOC2)nc2cc(Cl)ccc21 (single isomer, unassigned) [Example 162, N-[(5-chloro-1-ethyl-1H-1,3-benzodiazol-2-yl)(oxolan-3-yl)methyl]-5-methylpyrazine-2-carboxamide]
2 | 27 | CCn1c(C(NC(=O)c2cnc(C)cn2)C2CCOC2)nc2ccc(Cl)cc21 (single isomer, unassigned) [Example 163, N-[(6-chloro-1-ethyl-1H-1,3-benzodiazol-2-yl)(oxolan-3-yl)methyl]-5-methylpyrazine-2-carboxamide]
3 | 35 | CCn1c(C(NC(=O)c2cnc(C)cn2)C2CCOC2)nc2ccc(Cl)cc21 (single isomer, unassigned) [Example 164, N-[(6-chloro-1-ethyl-1H-1,3-benzodiazol-2-yl)(oxolan-3-yl)methyl]-5-methylpyrazine-2-carboxamide]
4 | 4 | CCn1c([C@@H](NC(=O)c2cnc(C)cn2)C2CC2)nc2cc(F)ccc21 [Example 1, N-[(S)-cyclopropyl(1-ethyl-5-fluoro-1H-1,3-benzodiazol-2-yl)methyl]-5-methylpyrazine-2-carboxamide]
5 | 2 | COCCn1c([C@@H](NC(=O)c2cnc(C)cn2)[C@@H](C)OC)nc2cc(OC(F)(F)F)ccc21 [Example 2, N-[(1R,2R)-2-methoxy-1-[1-(2-methoxyethyl)-5-(trifluoromethoxy)-1H-1,3-benzodiazol-2-yl]propyl]-5-methylpyrazine-2-carboxamide]
6 | 3 | CCn1c([C@@H](NC(=O)c2cnc(C(F)F)cn2)C2CC2)nc2cc(F)ccc21 [Example 3, N-[(S)-cyclopropyl(1-ethyl-5-fluoro-1H-1,3-benzodiazol-2-yl)methyl]-5-(difluoromethyl)pyrazine-2-carboxamide]
7 | 4 | O=C(N[C@H](c1nc2cc(F)ccc2n1CC(F)F)C1CC1)c1cnc(C(F)F)cn1 [Example 4, N-[(S)-cyclopropyl[1-(2,2-difluoroethyl)-5-fluoro-1H-1,3-benzodiazol-2-yl]methyl]-5-(difluoromethyl)pyrazine-2-carboxamide]
8 | 5 | COCCn1c([C@@H](NC(=O)c2cnc(C(F)F)cn2)C2CC2)nc2cc(F)ccc21 [Example 5, N-[(S)-cyclopropyl[5-fluoro-1-(2-methoxyethyl)-1H-1,3-benzodiazol-2-yl]methyl]-5-(difluoromethyl)pyrazine-2-carboxamide]
9 | 7 | COCCn1c([C@@H](NC(=O)c2cnc(C)cn2)C2CC2)nc2cc(F)ccc21 [Example 6, N-[(S)-cyclopropyl[5-fluoro-1-(2-methoxyethyl)-1H-1,3-benzodiazol-2-yl]methyl]-5-methylpyrazine-2-carboxamide]
10 | 4 | Cc1cnc(C(=O)N[C@H](c2nc3cc(F)ccc3n2C(C)C)C2CC2)cn1 [Example 7, N-[(S)-cyclopropyl[5-fluoro-1-(propan-2-yl)-1H-1,3-benzodiazol-2-yl]methyl]-5-methylpyrazine-2-carboxamide]
11 | 3 | COCCn1c([C@@H](NC(=O)c2cnc(C)cn2)C2CC2)nc2cc(Cl)ccc21 [Example 8, N-[(S)-[5-chloro-1-(2-methoxyethyl)-1H-1,3-benzodiazol-2-yl](cyclopropyl)methyl]-5-methylpyrazine-2-carboxamide]
12 | 4 | Cc1cnc(C(=O)N[C@H](c2nc3c(F)c(C)ccc3n2CC(F)F)C2CC2)cn1 [Example 9, N-[(S)-cyclopropyl[1-(2,2-difluoroethyl)-4-fluoro-5-methyl-1H-1,3-benzodiazol-2-yl]methyl]-5-methylpyrazine-2-carboxamide]
13 | 5 | Cc1cnc(C(=O)N[C@H](c2nc3cc(F)ccc3n2CC(F)F)C2CC2)cn1 [Example 10, N-[(S)-cyclopropyl[1-(2,2-difluoroethyl)-5-fluoro-1H-1,3-benzodiazol-2-yl]methyl]-5-methylpyrazine-2-carboxamide]
14 | 3 | COCCn1c([C@@H](NC(=O)c2cnc(C(F)F)cn2)C2CC2)nc2cc(Cl)ccc21 [Example 11, N-[(S)-[5-chloro-1-(2-methoxyethyl)-1H-1,3-benzodiazol-2-yl](cyclopropyl)methyl]-5-(difluoromethyl)pyrazine-2-carboxamide]
15 | 2 | COCCn1c([C@@H](NC(=O)c2cnc(C)cn2)C2CC2)nc2cc(OC(F)(F)F)ccc21 [Example 12, N-[(S)-cyclopropyl[1-(2-methoxyethyl)-5-(trifluoromethoxy)-1H-1,3-benzodiazol-2-yl]methyl]-5-methylpyrazine-2-carboxamide]
16 | 7 | COCCn1c([C@@H](NC(=O)c2cnc(C)cn2)C2CC2)nc2cc(OC(F)F)ccc21 [Example 13, N-[(S)-cyclopropyl[5-(difluoromethoxy)-1-(2-methoxyethyl)-1H-1,3-benzodiazol-2-yl]methyl]-5-methylpyrazine-2-carboxamide]
17 | 3 | Cc1cnc(C(=O)N[C@H](c2nc3cc(C)c(F)cc3n2CC(F)F)C2CC2)cn1 [Example 15, N-[(S)-cyclopropyl[1-(2,2-difluoroethyl)-6-fluoro-5-methyl-1H-1,3-benzodiazol-2-yl]methyl]-5-methylpyrazine-2-carboxamide]
18 | 5 | COCCn1c([C@@H](NC(=O)c2cnc(C)cn2)C2CC2)nc2cc(F)c(F)cc21 [Example 16, N-[(S)-cyclopropyl[5,6-difluoro-1-(2-methoxyethyl)-1H-1,3-benzodiazol-2-yl]methyl]-5-methylpyrazine-2-carboxamide]
19 | 4 | CCn1c([C@@H](NC(=O)c2cnc(C)cn2)C(C)C)nc2cc(F)ccc21 [Example 17, N-[(1S)-1-(1-ethyl-5-fluoro-1H-1,3-benzodiazol-2-yl)-2-methylpropyl]-5-methylpyrazine-2-carboxamide]
20 | 7 | COCCn1c([C@@H](NC(=O)c2cnc(C)cn2)C2CC2)nc2c(C)c(C#N)ccc21 [Example 18, N-[(S)-[5-cyano-1-(2-methoxyethyl)-4-methyl-1H-1,3-benzodiazol-2-yl](cyclopropyl)methyl]-5-methylpyrazine-2-carboxamide]
21 | 62 | COCCn1c(C(NC(=O)c2cnc(C)cn2)C2CCCO2)nc2cc(C(F)(F)F)ccc21 (stereo not drawn) [Example 19-2, N-{[1-(2-methoxyethyl)-5-(trifluoromethyl)-1H-1,3-benzodiazol-2-yl](oxolan-2-yl)methyl}-5-methylpyrazine-2-carboxamide]
22 | 3 | COCCn1c([C@@H](NC(=O)c2cnc(C)cn2)C2CC2)nc2cc(Cl)c(F)cc21 [Example 21]
23 | 6 | CO[C@H](C)[C@H](NC(=O)c1cnc(C)cn1)c1nc2cc(C(F)(F)F)ccc2n1C [Example 22, N-[(1R,2R)-2-methoxy-1-[1-methyl-5-(trifluoromethyl)-1H-1,3-benzodiazol-2-yl]propyl]-5-methylpyrazine-2-carboxamide]
24 | 4 | COCCn1c([C@@H](NC(=O)c2cnc(C(F)F)cn2)[C@@H]2CCOC2)nc2cc(OC(F)(F)F)ccc21 [Example 23, 5-(difluoromethyl)-N-[(S)-[1-(2-methoxyethyl)-5-(trifluoromethoxy)-1H-1,3-benzodiazol-2-yl][(3S)-oxolan-3-yl]methyl]pyrazine-2-carboxamide]
25 | 7 | COCCn1c([C@H](CC2CC2)NC(=O)c2cnc(C)cn2)nc2cc(F)ccc21 [Example 24, N-[(1S)-2-cyclopropyl-1-[5-fluoro-1-(2-methoxyethyl)-1H-1,3-benzodiazol-2-yl]ethyl]-5-methylpyrazine-2-carboxamide]
26 | 3 | CCn1c([C@@H](NC(=O)c2cnc(C)cn2)C2CC2)nc2cc(Cl)ccc21 [Example 25, N-[(S)-(5-chloro-1-ethyl-1H-1,3-benzodiazol-2-yl)(cyclopropyl)methyl]-5-methylpyrazine-2-carboxamide]
27 | 7 | CO[C@H](C)[C@H](NC(=O)c1cnc(C)cn1)c1nc2cc(Br)c(F)cc2n1C [Example 26, N-[(1R,2R)-1-(5-bromo-6-fluoro-1-methyl-1H-1,3-benzodiazol-2-yl)-2-methoxypropyl]-5-methylpyrazine-2-carboxamide]
